Measurements: ChEMBL document CHEMBL5108001, “Multivalent glucosidase inhibitors based on perylene bisimide and iminosugar conjugates” (Eur J Med Chem, 2022)
One block for each compound: values may come before it.

Key:
[1] = Inhibition of Aspergillus niger alpha-glucosidase by Lineweaver-Burk plot analysis
Mus musculus [2] = experiment: Hypoglycemic activity in C57BL/6J mouse assessed as reduction in postprandial blood glucose level at 1 mg/kg measured after 15 mins by maltose tolerance test; format: functional; settings: 0.25 h
Mus musculus [3] = experiment: Hypoglycemic activity in C57BL/6J mouse assessed as postprandial blood glucose level at 0.5 mg/kg measured after 30 mins by maltose tolerance test (reference value: 368.49 +/-31.28 mg/dl); format: functional
Mus musculus [4] = experiment: Hypoglycemic activity in C57BL/6J mouse assessed as postprandial blood glucose level at 1 mg/kg measured after 30 mins by maltose tolerance test (reference value: 368.49 +/-31.28 mg/dl); format: functional; settings: 0.5 h
Mus musculus [5] = experiment: Hypoglycemic activity in C57BL/6J mouse assessed as reduction in postprandial blood glucose level at 0.5 mg/kg measured after 15 mins by maltose tolerance test; format: functional; settings: 0.25 h
[6] = Inhibition of rice alpha-glucosidase by Lineweaver-Burk plot analysis; set-up: species or system Oryza sativa
Mus musculus [7] = experiment: Hypoglycemic activity in C57BL/6J mouse assessed as postprandial blood glucose level at 2 mg/kg measured after 30 mins by maltose tolerance test (reference value: 368.49 +/-31.28 mg/dl); format: functional; settings: 0.5 h
Mus musculus [8] = experiment: Hypoglycemic activity in C57BL/6J mouse assessed as reduction in postprandial blood glucose level at 1 mg/kg measured after 30 mins by maltose tolerance test; format: functional; settings: 0.5 h
Mus musculus [9] = experiment: Hypoglycemic activity in C57BL/6J mouse assessed as reduction in postprandial blood glucose level at 2 mg/kg measured after 15 mins by maltose tolerance test; format: functional; settings: 0.25 h
Mus musculus [10] = experiment: Hypoglycemic activity in C57BL/6J mouse assessed as reduction in postprandial blood glucose level at 0.5 mg/kg measured after 30 mins by maltose tolerance test; format: functional; settings: 0.5 h
Mus musculus [11] = experiment: Hypoglycemic activity in C57BL/6J mouse assessed as reduction in postprandial blood glucose level at 2 mg/kg measured after 30 mins by maltose tolerance test; format: functional; settings: 0.5 h
[12] = Toxicity in C57BL/6J mouse assessed as spleen pathological morphological changes at 2 mg/kg administered for 7 days by hematoxylin-eosin staining based analysis; format: organism-based; settings: in vivo, 168 h, time 7 day
[13] = Toxicity in C57BL/6J mouse assessed as heart pathological morphological changes at 2 mg/kg administered for 7 days by hematoxylin-eosin staining based analysis; format: organism-based; settings: in vivo, 168 h, time 7 day
[14] = Toxicity in C57BL/6J mouse assessed as change in CK level at 2 mg/kg administered for 7 days; format: organism-based; settings: in vivo, 168 h, time 7 day
[15] = Cytotoxicity against human GES1 cells assessed as cell viability at 125 uM; format: toxicity, cell-based; settings: read-out: Activity
[16] = Toxicity in C57BL/6J mouse assessed as lungs pathological morphological changes at 2 mg/kg administered for 7 days by hematoxylin-eosin staining based analysis; format: organism-based; settings: in vivo, 168 h, time 7 day
Alpha-mannosidase = molecular target: T1, Alpha-mannosidase (Canavalia ensiformis, UniProt C0HJB3); experiment: Inhibition of jack bean alpha-mannosidase
T1 sequence (C0HJB3 whole entry): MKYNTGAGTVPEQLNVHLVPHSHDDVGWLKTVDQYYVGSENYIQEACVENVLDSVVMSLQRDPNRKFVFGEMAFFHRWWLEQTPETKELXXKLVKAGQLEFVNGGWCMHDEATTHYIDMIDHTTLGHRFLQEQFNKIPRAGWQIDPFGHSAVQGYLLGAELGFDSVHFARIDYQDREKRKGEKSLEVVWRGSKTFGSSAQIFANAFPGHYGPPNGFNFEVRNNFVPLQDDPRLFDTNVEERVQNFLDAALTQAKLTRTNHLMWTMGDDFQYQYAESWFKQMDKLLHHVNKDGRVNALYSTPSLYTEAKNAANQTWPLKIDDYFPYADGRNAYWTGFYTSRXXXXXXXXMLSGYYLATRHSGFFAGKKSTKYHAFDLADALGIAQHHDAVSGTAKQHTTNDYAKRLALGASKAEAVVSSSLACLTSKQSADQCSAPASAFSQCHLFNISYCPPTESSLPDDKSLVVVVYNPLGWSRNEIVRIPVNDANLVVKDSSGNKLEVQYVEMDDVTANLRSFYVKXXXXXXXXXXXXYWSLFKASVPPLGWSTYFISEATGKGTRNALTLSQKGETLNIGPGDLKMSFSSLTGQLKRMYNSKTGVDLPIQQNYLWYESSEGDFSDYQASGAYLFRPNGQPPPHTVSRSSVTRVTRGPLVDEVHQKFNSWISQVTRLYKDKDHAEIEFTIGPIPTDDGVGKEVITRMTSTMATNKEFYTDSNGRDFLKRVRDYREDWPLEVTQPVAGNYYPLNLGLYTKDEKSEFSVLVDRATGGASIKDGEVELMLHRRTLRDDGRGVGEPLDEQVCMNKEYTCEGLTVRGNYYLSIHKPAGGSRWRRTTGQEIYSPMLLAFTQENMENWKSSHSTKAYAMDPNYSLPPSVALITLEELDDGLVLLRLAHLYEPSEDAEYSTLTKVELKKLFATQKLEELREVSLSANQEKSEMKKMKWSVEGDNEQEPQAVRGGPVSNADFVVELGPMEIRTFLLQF

[17] = Renal toxicity in C57BL/6J mouse assessed as blood uric acid level at 2 mg/kg administered for 7 days; format: organism-based; settings: in vivo, 168 h, time 7 day
[18] = Hepatotoxicity in C57BL/6J mouse assessed as serum ALT level at 2 mg/kg administered for 7 days (reference value: 70.49 +/-8.78 U/L); format: toxicity, organism-based; settings: in vivo, 168 h, time 7 day
[19] = Toxicity in C57BL/6J mouse assessed as change in blood HDL level at 2 mg/kg administered for 7 days; format: organism-based; settings: in vivo, 168 h, time 7 day
Oryza sativa = experiment: Potency index, ratio of Miglitol Ki to test compound Ki for inhibition of rice alpha-glucosidase measured per DNJ unit
[20] = Toxicity in C57BL/6J mouse assessed as change in body weight at 2 mg/kg administered for 7 days; format: organism-based; settings: in vivo, 168 h, time 7 day
[21] = Toxicity in C57BL/6J mouse assessed as change in GLU level at 2 mg/kg administered for 7 days; format: organism-based; settings: in vivo, 168 h, time 7 day
[22] = Toxicity in C57BL/6J mouse assessed as change in blood triglyceride level at 2 mg/kg administered for 7 days; format: organism-based; settings: in vivo, 168 h, time 7 day
[23] = molecular target: T2, Alpha-mannosidase (Canavalia ensiformis) (UniProt C0HJB3); experiment: Potency index, ratio of Miglitol Ki to test compound Ki for inhibition of jack bean alpha-mannosidase measured per DNJ unit
T2 sequence (whole entry): T1 sequence (C0HJB3 whole entry)

[24] = Toxicity in C57BL/6J mouse assessed as kidneys pathological morphological changes at 2 mg/kg administered for 7 days by hematoxylin-eosin staining based analysis; format: organism-based; settings: in vivo, 168 h, time 7 day
[25] = Toxicity in C57BL/6J mouse assessed as hepatic pathological changes by measuring hepatocytes distributed radially around the central veins at 2 mg/kg administered for 7 days by hematoxylin-eosin staining based analysis; format: organism-based; settings: in vivo, 168 h, time 7 day
[26] = Renal toxicity in C57BL/6J mouse assessed as blood urea level at 2 mg/kg administered for 7 days; format: organism-based; settings: in vivo, 168 h, time 7 day
[27] = Toxicity in C57BL/6J mouse assessed as reduction in blood LDL level at 2 mg/kg administered for 7 days; format: organism-based; settings: in vivo, 168 h, time 7 day
Mus musculus [28] = experiment: Hypoglycemic activity in C57BL/6J mouse assessed as reduction in postprandial blood glucose level per DNJ nit at 0.5 to 2 mg/kg measured after 15 mins by maltose tolerance test relative to Miglitol; format: functional; settings: dose 0.5-2 mg/kg, 0.25 h
[29] = Hepatotoxicity in C57BL/6J mouse assessed as serum AST level at 2 mg/kg administered for 7 days (reference value: 221.38 +/-23.03 U/L); format: toxicity, organism-based; settings: in vivo, 168 h, time 7 day
[30] = Inhibition of alpha-glucosidase in Kunming mouse using p-nitrophenyl-alpha-glycopyranoside as substrate by Lineweaver-Burk plot analysis
Mus musculus [31] = experiment: Hypoglycemic activity in C57BL/6J mouse assessed as reduction in postprandial blood glucose level per DNJ unit at 0.5 to 1 mg/kg measured after 30 mins by maltose tolerance test relative to Miglitol; format: functional; settings: dose 0.5-1 mg/kg
[32] = Toxicity in C57BL/6J mouse assessed as change in blood cholesterol level at 2 mg/kg administered for 7 days; format: organism-based; settings: in vivo, 168 h, time 7 day

Ki [1]: 20800 nM
Ki [6]: 180 nM
Structure (SMILES): OCCN1C[C@H](O)[C@@H](O)[C@H](O)[C@H]1CO [MIGLITOL]
inhibition in vivo at 1 mg/kg (Mus musculus [2]): 30%
Activity (Mus musculus [3]): 287.55 mg/dL
Activity (Mus musculus [4]): 273.6 mg/dL
inhibition in vivo at 0.5 mg/kg (Mus musculus [5]): 23.1%
Activity (Mus musculus [7]): 233.28 mg/dL
inhibition in vivo at 1 mg/kg (Mus musculus [8]): 27.3%
inhibition in vivo at 2 mg/kg (Mus musculus [9]): 39.2%
inhibition in vivo at 0.5 mg/kg (Mus musculus [10]): 22%
inhibition in vivo at 2 mg/kg (Mus musculus [11]): 41%

Ki [1]: 18900 nM
Ki (Alpha-mannosidase): 80 nM
Ratio Ki (Oryza sativa): 1.5
Ratio Ki [23]: 219
Ki [6]: 20 nM
Ki [30]: 140 nM
Structure (SMILES): O=C1c2cc(Oc3ccc(OCc4cn(CCCN5C[C@H](O)[C@@H](O)[C@H](O)[C@H]5CO)nn4)cc3)c3c4c(Oc5ccc(OCc6cn(CCCN7C[C@H](O)[C@@H](O)[C@H](O)[C@H]7CO)nn6)cc5)cc5c6c(cc(Oc7ccc(OCc8cn(CCCN9C[C@H](O)[C@@H](O)[C@H](O)[C@H]9CO)nn8)cc7)c(c7c(Oc8ccc(OCc9cn(CCCN%10C[C@H](O)[C@@H](O)[C@H](O)[C@H]%10CO)nn9)cc8)cc(c2c37)C(=O)N1Cc1cn(CCCN2C[C@H](O)[C@@H](O)[C@H](O)[C@H]2CO)nn1)c64)C(=O)N(Cc1cn(CCCN2C[C@H](O)[C@@H](O)[C@H](O)[C@H]2CO)nn1)C5=O
Activity [12]: Non-Toxic
Activity [13]: Non-Toxic
Activity [14]: Non-Toxic
viability at 125 µM [15]: 92%
Activity [16]: Non-Toxic
Activity [17]: 242.06 µmol/L
Activity [18]: 59.14 U/L
Activity [19]: Non-Toxic
Activity [20]: Non-Toxic
inhibition in vivo at 1 mg/kg (Mus musculus [2]): 37%
Activity (Mus musculus [3]): 279.6 mg/dL
Activity [21]: Non-Toxic
Activity (Mus musculus [4]): 243.36 mg/dL
Activity [22]: Non-Toxic
inhibition in vivo at 0.5 mg/kg (Mus musculus [5]): 24.7%
Activity [24]: Non-Toxic
Activity [25]: Non-Toxic
Activity (Mus musculus [7]): 229.32 mg/dL
Activity [26]: 8.63 mmol/L
Activity [27]: 0.3 mmol/L
fold change (FC) (Mus musculus [28]): 2.1
inhibition in vivo at 1 mg/kg (Mus musculus [8]): 34.6%
Activity [29]: 269.71 U/L
fold change (FC) (Mus musculus [31]): 2.1
inhibition in vivo at 2 mg/kg (Mus musculus [9]): 40.4%
inhibition in vivo at 0.5 mg/kg (Mus musculus [10]): 24.4%
Activity [32]: Non-Toxic
inhibition in vivo at 2 mg/kg (Mus musculus [11]): 37.8%
